Test results from ChEMBL document CHEMBL1158301, “Isolation of guaianoid pigments from the gorgonian Calicogorgia granulosa” (1996).

Assays:
Format in all cases: functional
Conditions in all cases: read-out: IZ
[1] = system: Escherichia coli; assay: Antimicrobial activity against Escherichia coli at 25 ug/mL by paper disk assay
[2] = system: Bacillus subtilis; assay: Antimicrobial activity against Bacillus subtilis at 25 ug/mL by paper disk assay
[3] = system: Candida albicans; assay: Antimicrobial activity against Candida albicans at 25 ug/mL by paper disk assay

Row | Structure (SMILES) | zone of inhibition at 25 µg/mL [1] [mm] | zone of inhibition at 25 µg/mL [2] [mm] | zone of inhibition at 25 µg/mL [3] [mm]
1 | Cc1cc(-c2cc(C)c3cc(C(C)C)ccc(C)c2-3)c2c(C)ccc(C(C)C)cc1-2 | 3 | 8 | 5
2 | Cc1cc(Cc2cc(C)c3cc(C(C)C)ccc(C)c2-3)c2c(C)ccc(C(C)C)cc1-2 | 3 | 3 | 
